Data from patent US20220128542A1, “TREATMENT EFFICIENCY EVALUATION” (TX MEDIC AB, priority 2019, published 2022).

Tested on: brain of rats subjected to closed-head diffuse severe TBI (sTBI)
Assay: HPLC of energy metabolites, antioxidants and oxidative/nitrosative stress biomarkers in brain, dose study after sTBI (Example 3)
Assay type: in vivo, rat
Description: Male Wistar rats (n=160) of 300-350 g body weight were used in this study.
1994, 80: 291-300. This model causes diffuse axonal injury and it is able to reproduce the physical and mechanical characteristics of the diffuse TBI in humans.
Rats were placed prone on a bed of specific polyurethane foam inserted in a special container. This foam dissipates the major part of the potential energy (deriving from the mechanical forces) and prevents any rebound of the animal after the impact that could produce spinal damages.
These time points are coincident with the worst biochemical derangement (2 days) or, in the case of a mildly injured brain, with a full metabolic recovery (7 days).
The drug treatment consisted in a subcutaneous injection of 0.5 ml of LMW-DS (Tikomed) and administered at 3 different concentrations (1, 5 and 15 mg/kg body weight), according to the schematic protocol described below.
Sham-operated animals underwent the same procedure of anesthesia but TBI and were used as the control group.
Rats used in this study were divided into 4 groups in order to carry out a study on the efficacy of three different concentrations of LMW-DS at two different times post TBI. As subsequently specified, in each group there were animals subjected to a specific treatment for metabolic analyses and other animals intended to histo-morphological studies, according to the procedures described below.
Rats subjected to sTBI and receiving a single administration of LMW-DS after 30 minutes post-TBI, with sacrifice at 2 days post-TBI. Animals were divided in the following subgroups:
Rats subjected to sTBI and receiving a single administration of LMW-DS after 30 minutes post-TBI, with sacrifice at 7 days post-TBI. Animals were divided in the following subgroups:
Rats (n=12) subjected to sTBI and receiving repeated administrations of the maximal dose of LMW-DS (15 mg/kg b.w.) after 30 minutes, 3 days and 5 days post-TBI, with sacrifice at 7 days post-TBI. Four additional rats were used for the histo-morphological studies. Total rats in this group: n=16
To minimize metabolite loss, an in vivo craniectomy was performed in all animals during anesthesia. The rat skull was carefully removed, the brain was exposed, sharply cut along the sagittal fissure and the two hemispheres were separated. The hemispheres dedicated to biochemical analyses were freeze-clamped by aluminum tongues pre-cooled in liquid nitrogen and then immersed in liquid nitrogen. The freeze-clamping procedure was introduced to accelerate freezing of the tissue, thus minimizing potential metabolite loss.
Tissue homogenization for metabolite analyses was effected as described below. After the wet weight (w.w.) determination, the frozen hemispheres were placed into 7 ml of ice-cold, nitrogen-saturated, precipitating solution (1:10 w/v) composed by CH3CN+10 mM KH2PO4, pH 7.40, (3:1; v:v), and the homogenization was performed using an Ultra-Turrax homogenizer set at 24,000 rpm/min (Janke & Kunkel, Staufen, Germany). After centrifugation at 20,690×g, for 10 min at 4° C., the clear supernatants were saved, pellets were supplemented with an aliquot of 10 mM KH2PO4 and homogenized again as described above and saved overnight at −20° C. in order to obtain a complete recovery of aqueous phase from tissue. A second centrifugation was performed (20,690×g, for 10 min at 4° C.) and supernatants combined with those previously obtained were extracted by vigorous agitation with a double volume of HPLC-grade CHCl3 and centrifuged as above.

[1] = rats 2 days post-TBI, single 15 mg/kg b.w. 30 min after trauma
[2] = rats 7 days post-sTBI, repeated 15 mg/kg b.w.
[3] = rats 7 days post-sTBI, single 1 mg/kg b.w.
[4] = rats 7 days post-sTBI, single 5 mg/kg b.w.
[5] = rats 7 days post-sTBI, single 15 mg/kg b.w.

## sodium salt of dextran sulfate [LMW-DS]
[1]
  GUANOSINE concentration in brain homogenate: 24.35 ± 4.05 nmol/g w.w.
  HYPDXANTHINE concentration in brain homogenate: 6.82 ± 1.12 nmol/g w.w.
  INOSINE concentration in brain homogenate: 142.91 ± 18.63 nmol/g w.w.
  URACIL concentration in brain homogenate: 15.55 ± 3.04 nmol/g w.w.
  β-PSEUDOURIDINE concentration in brain homogenate: 7.84 ± 1.57 nmol/g w.w.
[2]
  ADENOSINE concentration in brain homogenate: 40.84 ± 30.25 nmol/g w.w.
  ADP-Ribose concentration in brain homogenate: 13.23 ± 3.32 nmol/g w.w.
  AMP concentration in brain homogenate: 43.12 ± 3.39 nmol/g w.w.
  Acetyl-CoA concentration in brain homogenate: 37.91 ± 6.46 nmol/g w.w.
  CMP concentration in brain homogenate: 31.21 ± 13.28 nmol/g w.w.
  CoA-SH concentration in brain homogenate: 45.76 ± 5.87 nmol/g w.w.
  GDP concentration in brain homogenate: 109.06 ± 12.46 nmol/g w.w.
  GUANINE concentration in brain homogenate: 3.32 ± 1.41 nmol/g w.w.
  GUANOSINE concentration in brain homogenate: 19.66 ± 4.10 nmol/g w.w.
  INOSINE concentration in brain homogenate: 139.26 ± 15.62 nmol/g w.w.
  Malonyl-CoA concentration in brain homogenate: 12.56 ± 2.27 nmol/g w.w.
  NADPH concentration in brain homogenate: 11.21 ± 2.60 nmol/g w.w.
  NO2 concentration in brain homogenate: 130.69 ± 28.31 nmol/g w.w.
  UDP-GIcNac concentration in brain homogenate: 86.42 ± 29.89 nmol/g w.w.
  UDP-Gal concentration in brain homogenate: 135.15 ± 9.29 nmol/g w.w.
  UDP-GalNac concentration in brain homogenate: 16.50 ± 4.73 nmol/g w.w.
  URACIL concentration in brain homogenate: 24.13 ± 4.96 nmol/g w.w.
  URIDINE concentration in brain homogenate: 97.21 ± 23.03 nmol/g w.w.
  XANTHINE concentration in brain homogenate: 11.24 ± 3.18 nmol/g w.w.
[3]
  ADP concentration in brain homogenate: 286.78 ±38.19 nmol/g w.w.
  AMP concentration in brain homogenate: 43.13 ± 3.39 nmol/g w.w.
  ASCORBIC ACID concentration in brain homogenate: 2177.22 ± 262.21 nmol/g w.w.
  CDP choline concentration in brain homogenate: 6.26 ± 2.01 nmol/g w.w.
  CMP concentration in brain homogenate: 25.41 ± 10.81 nmol/g w.w.
  CYTIDINE concentration in brain homogenate: 29.67 ± 10.44 nmol/g w.w.
  CYTOSINE concentration in brain homogenate: 16.03 ± 3.44 nmol/g w.w.
  GDP concentration in brain homogenate: 121.72 ± 13.91 nmol/g w.w.
  GMP concentration in brain homogenate: 113.06 ± 53.51 nmol/g w.w.
  GSH concentration in brain homogenate: 1627.30 ± 214.51 nmol/g w.w.
  GUANINE concentration in brain homogenate: 6.86 ± 2.92 nmol/g w.w.
  GUANOSINE concentration in brain homogenate: 19.11 ± 3.98 nmol/g w.w.
  NADH concentration in brain homogenate: 8.20 ± 1.41 nmol/g w.w.
  NAD^+ concentration in brain homogenate: 268.14 ± 37.97 nmol/g w.w.
  NO3 concentration in brain homogenate: 153.62 ± 26.24 nmol/g w.w.
  UDP-GIcNac concentration in brain homogenate: 85.36 ± 29.53 nmol/g w.w.
  UDP-Gal concentration in brain homogenate: 130.20 ± 8.95 nmol/g w.w.
  UDP-GalNac concentration in brain homogenate: 15.85 ± 4.54 nmol/g w.w.
  XANTHINE concentration in brain homogenate: 12.53 ± 3.54 nmol/g w.w.
[4]
  ADP concentration in brain homogenate: 289.27 ± 38.52 nmol/g w.w.
  AMP concentration in brain homogenate: 59.50 ± 4.68 nmol/g w.w.
  ASCORBIC ACID concentration in brain homogenate: 2195.87 ± 264.45 nmol/g w.w.
  CDP choline concentration in brain homogenate: 10.37 ± 3.33 nmol/g w.w.
  CYTIDINE concentration in brain homogenate: 26.51 ± 9.33 nmol/g w.w.
  CYTOSINE concentration in brain homogenate: 12.67 ± 2.72 nmol/g w.w.
  GMP concentration in brain homogenate: 101.42 ± 48.00 nmol/g w.w.
  GUANINE concentration in brain homogenate: 7.92 ± 3.37 nmol/g w.w.
  GUANOSINE concentration in brain homogenate: 33.42 ± 6.96 nmol/g w.w.
  NADH concentration in brain homogenate: 8.83 ± 1.26 nmol/g w.w.
  NADPH concentration in brain homogenate: 12.30 ± 2.86 nmol/g w.w.
  NADP^+ concentration in brain homogenate: 24.45 ± 8.97 nmol/g w.w.
  UDP concentration in brain homogenate: 44.19 ± 6.22 nmol/g w.w.
  UDP-GIcNac concentration in brain homogenate: 85.14 ± 29.45 nmol/g w.w.
  UDP-Gal concentration in brain homogenate: 132.66 ± 9.12 nmol/g w.w.
  UDP-Glc concentration in brain homogenate: 58.10 ± 11.81 nmol/g w.w.
  XANTHINE concentration in brain homogenate: 14.33 ± 4.05 nmol/g w.w.
[5]
  ADENOSINE concentration in brain homogenate: 55.95 ± 41.44 nmol/g w.w.
  ADP concentration in brain homogenate: 276.83 ± 36.87 nmol/g w.w.
  ADP-Ribose concentration in brain homogenate: 19.21 ± 4.82 nmol/g w.w.
  Acetyl-CoA concentration in brain homogenate: 38.60 ± 6.57 nmol/g w.w.
  CDP choline concentration in brain homogenate: 10.06 ± 3.23 nmol/g w.w.
  CYTIDINE concentration in brain homogenate: 33.06 ± 11.63 nmol/g w.w.
  CYTOSINE concentration in brain homogenate: 13.87 ± 2.98 nmol/g w.w.
  GDP concentration in brain homogenate: 122.07 ± 13.95 nmol/g w.w.
  GUANINE concentration in brain homogenate: 5.27 ± 2.24 nmol/g w.w.
  GUANOSINE concentration in brain homogenate: 20.91 ± 4.36 nmol/g w.w.
  NADP^+ concentration in brain homogenate: 23.75 ± 8.72 nmol/g w.w.
  NAD^+ concentration in brain homogenate: 491.52 ± 69.61 nmol/g w.w.
  NO3 concentration in brain homogenate: 161.99 ± 27.67 nmol/g w.w.
  UDP-Gal concentration in brain homogenate: 137.57 ± 9.46 nmol/g w.w.
  XANTHINE concentration in brain homogenate: 12.71 ± 3.60 nmol/g w.w.
